Data taken from patent US10407466B2 (Apellis Pharmaceuticals, Inc., priority 2005, dated 2019).
Where two headings read alike, the source gives them in different places. Marks after values point to notes of the source that are not given here. Bridge positions count the residues as written; N and C are the ends. Square brackets hold non-standard residues; d marks the D form. 2Nal = N[C@@H](Cc1ccc2ccccc2c1)C(=O)O

Legend:
[1] = in vivo; cited from earlier work
[2] = test system: choroidal neovascularization (CNV) in C57BL/6 mice; assay: Laser-induced CNV in a mouse model, intravitreal injection; assay type: in vivo
Source text: C57BL/6 mice (The Jackson Laboratory) were anesthetized with a mixture of ketamine/xylazine (8:1) and the pupils were dilated with a single drop of 1% tropicamide. Krypton red laser photocoagulation (50-μm spot size, 0.05 s duration, 250 mW) will be used to generate laser spots in surrounding the optic nerve by using a hand-held coverslip as a contact lens. Formation of a bubble at the laser spot indicated rupture of Bruch's membrane. Multiple laser spots were generated in each eye.
Different groups of mice were injected with different quantities of this molecule or of mouse albumin (as a control) to determine the effect of dosage on the efficacy and toxicity of VCP. Briefly, after anesthesia and dilation of the pupil, the anterior chamber was entered via the limbus with a 28-gauge needle to decompress the eye. Under an operating microscope, which allows visualization of the retina, a 32-gauge (blunt) needle was passed through a scleral incision, just behind the limbus, into the vitreous cavity.
Seven days after CNV induction incidence of CNV was determined. Briefly, the mice were perfused with a FITC-dextran (Sigma-Aldrich) solution just prior to sacrifice. After the eyes were excised and fixed for 1 h in 10% phosphate-buffered formalin, RPE-choroid-scleral flat mounts were prepared as follows. The cornea and the lens were removed and the neurosensory retina carefully dissected from the eyecup. Five radial cuts were from the edge of the eyecup to the equator; the sclera-choroidretinal pigment epithelium (RPE) complex was flat-mounted, with the sclera facing down, on a glass slide in Aquamount. The flat mounts were stained with an anti-elastin specific monoclonal antibody (Sigma-Aldrich) and then with a CY3-conjugated secondary antibody (Sigma-Aldrich) at a suitable concentration, e.g., at a 1/200 dilution of a 1.0 mg/ml stock solution. Mounts were observed under confocal microscopy (LSM510, Zeiss). The prominent neovascular growth stained green whereas the underlying elastin in the Bruch's membrane stained red within a laser spot. Images were analyzed with the image analysis software AxioVision (Zeiss). The amount of CNV was determined by measuring the total green-fluorescent surface area in each picture. A mean green-fluorescent area was obtained for the various groups and compared using student t-test for comparisons between groups and ANOVA for comparison among multiple groups. […] Deposition of a variety of different complement components is also measured using immunological techniques and/or RT-PCR.
Seven days after CNV induction, incidence of CNV was determined. Just prior to sacrifice, the mice were perfused with a FITC-dextran (Sigma-Aldrich) solution. After the eyes were excised and fixed in 10% phosphate-buffered formalin, RPE-choroid-scleral flat mounts were prepared and stained with an anti-elastin specific monoclonal antibody (Sigma-Aldrich) and then with a CY3-conjugated secondary antibody (Sigma-Aldrich). Mounts were observed under confocal microscopy (LSM510, Zeiss). The prominent neovascular growth stained green whereas the underlying elastin in the Bruch's membrane stained red within a laser spot. […] Images were analyzed with the image analysis software AxioVision (Zeiss). The amount of CNV was determined by measuring the total green-fluorescent surface area in each picture. A mean green-fluorescent area was obtained for the various groups and compared using student t-test for comparisons between groups and ANOVA for comparison among multiple groups. Results are described in Table 2 and in the graph in FIG. 4.

non-primate C3 = settings: reported; cited from earlier work
[3] = Half-life in vitro in the vitreous; assay type: in vitro ADME
Method: The inventors' calculations establish, for the first time, the feasibility of substantially inhibiting C3 activation at levels at or above those expected to be present in the vitreous of a subject with wet ARMD by sustained intravitreal delivery of amounts as little as 5 μg/day of a therapeutic agent, which amounts may, according to the invention, be delivered by intravitreal implant technology over prolonged periods of time (as described further below). The inventors' calculations also establish, for the first time, the feasibility of substantially inhibiting C3 activation at levels at or above those expected to be present in the vitreous of a subject with dry ARMD by sustained intravitreal delivery of amounts as low as 2 μg/day of a therapeutic agent, which amounts may be delivered over prolonged periods of time by intravitreal implant technology according to the present invention.

CC[C@H](C)[C@H](N)C(=O)N[C@H]1CSSC[C@@H](C(=O)N[C@H](C(N)=O)[C@@H](C)O)NC(=O)[C@H](CCCN=C(N)N)NC(=O)[C@H](Cc2cnc[nH]2)NC(=O)[C@H](Cc2cnc[nH]2)NC(=O)CNC(=O)[C@H](Cc2c[nH]c3ccccc23)NC(=O)[C@H](CC(=O)O)NC(=O)[C@H](CCC(N)=O)NC(=O)[C@H](C(C)C)NC(=O)[C@H](C(C)C)NC1=O [compstatin]
half-life [1]: < 0.25 h
Mean Difference (I-J), FldAreaGreen ([2]; I = Compstatin 30 ug, J = VCP 30 ug, day 7): −317.4
Mean Difference (I-J), FldAreaGreen ([2]; I = Mouse Albumin Control, J = test agent 30 ug/eye, day 7): 3286*
Mean Difference (I-J), FldAreaGreen ([2]; I = No-treatment control, J = test agent 30 ug/eye, green-fluorescent CNV area, day 7, Tamhane): 5195*
Mean Difference (I-J), FldAreaGreen ([2]; I = test agent 30 ug/eye, J = Mouse Albumin Control, day 7): −3286*
Mean Difference (I-J), FldAreaGreen ([2]; I = test agent 30 ug/eye, J = No-treatment control, day 7): −5195*
Mean Difference (I-J), FldAreaGreen ([2]; I = test agent 30 ug/eye, J = VCP 10 ug, day 7): −5862*
affinity for non-primate C3 compared with human or non-human primate C3 (non-primate C3): lower

CC[C@H](C)[C@H](NC(C)=O)C(=O)N[C@H]1CSSC[C@@H](C(=O)N[C@H](C(N)=O)[C@@H](C)O)NC(=O)[C@H](CCCNC(=N)N)NC(=O)[C@H](Cc2cnc[nH]2)NC(=O)[C@H](C)NC(=O)CNC(=O)[C@H](Cc2c[nH]c3ccccc23)NC(=O)[C@H](CC(=O)O)NC(=O)[C@H](CCC(N)=O)NC(=O)[C@H](Cc2cn(C)c3ccccc23)NC(=O)[C@H](C(C)C)NC1=O [Ac-V4(1-MeW)/H9A]
half-life [3]: ~6.9 h

Ac-ICV(2-Nal)QDWGAHRCT-CONH2 (Ac-ICV[2Nal]QDWGAHRCT-NH2; disulfide 2-12 (inferred)) [Ac-V4(2-Nal)/H9A]
mean area of CNV relative to either no treatment or administration of albumin ([2]; 30 μg intravitreal, 24 hrs after laser induction, seven days after CNV induction): statistically significant reduction
effectiveness compared with VCP on a μg basis ([2]; 30 μg/eye, difference not statistically significant at these sample sizes): somewhat more effective than VCP
development of CNV in an animal model ([2]; summary of Example 1): effective in significantly inhibiting the development of CNV
